Results on one molecule are retold here after ChEMBL document CHEMBL1201862, “PubChem BioAssay data set” (2004).

Each structure is given as a SMILES string.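 1) Cells in 96-well plates. 2) Compound, 48 h, 5 concentrations. 3) Linear interpolation between surrounding doses. 4) Unreached endpoint = highest concentration. Abbreviation: GI50, concentration required for 50% inhibition of growth.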 The source made the active and inactive calls. No stated cut-off is given here; in the data, active = GI50 up to about 1.1 µM and inactive = higher.

Common to all, as to experiment: NCI anticancer screen, dose series, 48 h
Experiment [1] has as its system MCF7.
The subject of experiment [2] is ACHN.
In experiment [3] the test system is Malme-3M.
Experiment [4] has as its system SR.
Experiment [5] has as its system TK-10.
Experiment [6] concerns NCI-H226.
Experiment [7] deals with SK-MEL-5.
Experiment [8] has as its system SK-MEL-28.
The test system of experiment [9] is UO-31.
The subject of experiment [10] is SF-295.
For experiment [11], the system named is U-251.
Experiment [12] relates to HL-60.
Experiment [13] deals with NCI-H460.
In experiment [14] the test system is MOLT-4.
Experiment [15] relates to MDA-N.
In experiment [16] the test system is SN12C.
For experiment [17], the system named is UACC-62.
The subject of experiment [18] is HOP-92.
For experiment [19], the system named is PC-3.
Experiment [20] concerns SF-268.

For `COC(=O)c1ccc(CCc2cc(O)ccc2O)cc1`, the GI50 was 7.5 µM (inactive) in experiment [1]; 13.3 µM (inactive) in experiment [2]; 8.75 µM (inactive) in [3]; 2.44 µM (inactive) in [4]; 22.4 µM (inactive) in experiment [5]; 9.29 µM (inactive) in experiment [6]. Besides, the GI50 in experiment [7] is 10.2 µM (inactive); in experiment [8] it was 16.6 µM (inactive); in [9], 2.02 µM (inactive); in experiment [10], 21.3 µM (inactive); in experiment [11], 7.46 µM (inactive); in [12], 0.959 µM (active). Also, the GI50 is 37 µM (inactive) in [13]; 1.77 µM (inactive) in experiment [14]; 5.94 µM (inactive) in [15]; 7.98 µM (inactive) in experiment [16]; 14.8 µM (inactive) in [17]; 9.25 µM (inactive) in experiment [18]. The GI50 was 4.3 µM (inactive) in experiment [19] and 5.68 µM (inactive) in experiment [20].
